From patent US11697648B2, “Fused pyrimidine pyridinone compounds as JAK inhibitors” (THERAVANCE BIOPHARMA R&D IP, LLC, priority 2019, dated 2023)

Key:
JAK2 = JAK2 (Homo sapiens (Human), UniProt O60674); assay: Biochemical JAK2 kinase assay (LanthaScreen)
Summary of the method: (§1)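 GST-JAK + GFP-STAT1 peptide, HEPES pH 7.5/MgCl2/EGTA/Brij-35 buffer; cpd preincubation 1 h RT; ATP start, 1 h RT; stop with 10 mM EDTA + 2 nM Tb-anti-pSTAT1; TR-FRET 520/495. 4-parameter IC50 → pKi (Cheng-Prusoff).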

Tyk2 = Tyk2 (Homo sapiens (Human), UniProt P29597); assay: Biochemical Tyk2 kinase assay (LanthaScreen)
Summary of the method: as §1

Caco-2 cell monolayers = assay: Caco-2 permeation assay; format: in vitro ADME; conditions: 5 μM, A-B direction, with Verapamil (25 μM)
Summary of the method: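 Compounds tested at 5 μM in duplicate across Caco-2 monolayers, apical-to-basolateral, with 25 μM verapamil to block P-gp, at 37° C., 5% CO2. Apical and basal samples taken at 0 and 120 min, analysed by LC-MS/MS; Papp (cm/sec) calculated as dQ/(dt×Area×concentration).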

JAK1 = JAK1 (Homo sapiens (Human), UniProt P23458); assay: Biochemical JAK1 kinase assay (LanthaScreen)
Summary of the method: as §1

JAK3 = JAK3 (Homo sapiens (Human), UniProt P52333); assay: Biochemical JAK3 kinase assay (LanthaScreen); conditions: for JAK3 (pKi)-JAK1 (pKi): selectivity JAK3 over JAK1, difference of pKi
Summary of the method: as §1

[1] = system: IL-2 stimulated STAT5 phosphorylation in Tall-1 human T cell line (JAK3); assay: Cellular JAK3 potency assay: inhibition of IL-2 stimulated pSTAT5 in Tall-1 T cells; format: cell-based; conditions: IL-2 stimulated pSTAT5, Tall-1 T cells
Summary of the method: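 Tall-1 cells, 45,000 per well, preincubated 1 hour with compound at 37 °C, then stimulated 30 minutes with IL-2 at 300 ng/ml final. pSTAT5 (Tyr694/699) in lysates quantified by AlphaLISA SureFire Ultra. pIC50 derived from inhibition curves, given as mean with SD.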

[2] = Colon and plasma mouse pharmacokinetics; format: in vivo; conditions: male Balb/c mice, 10 mg/kg PO, ratio of the colon AUC to the plasma AUC; for Kp: mouse, colon tissue / plasma
Protocol: Assay 5: Colon and Plasma Mouse Pharmacokinetics
To 6 male Balb/c mice was administered 10 mg/kg of compound in 1% HPMC+0.1% Tween-80 by PO administration. At 0.5, 2 and 6 hours after dose administration, animals were anesthetized, and terminal blood samples were collected by cardiac puncture, followed by collection of colon contents and colon tissue.
Blood samples were collected into K2EDTA and stored on wet ice until processed to plasma by centrifugation (12000 rpm at 4° C.). Plasma samples were transferred to cluster tubes and placed on dry ice prior to freezer storage. The colon contents from each animal were collected at each terminal blood collection time point. The colon tissues were flushed with saline and patted dry. The colon and colon content tissues were homogenized using sterile water containing 0.1% formic acid 9:1 (water:tissue, v/w). The homogenized tissues and colon contents were transferred to cluster tubes and placed on dry ice prior to freezer storage. All samples were analyzed using LC/MS/MS against analytical standards.
The composite pharmacokinetic parameters of the compounds were determined by non-compartmental analysis using Phoenix WinNonlin Version 6 (Certara, St. Louis, Mo.) and using mean values from 2 animals/time point. For plasma concentrations below the quantification limit (BQL), the lowest concentration measurable or the BLOQ (below limit of quantification) was used.
A colon to plasma ratio was determined as the ratio of the colon AUC to the plasma AUC.

Chain of JAK1 (P23458 whole entry): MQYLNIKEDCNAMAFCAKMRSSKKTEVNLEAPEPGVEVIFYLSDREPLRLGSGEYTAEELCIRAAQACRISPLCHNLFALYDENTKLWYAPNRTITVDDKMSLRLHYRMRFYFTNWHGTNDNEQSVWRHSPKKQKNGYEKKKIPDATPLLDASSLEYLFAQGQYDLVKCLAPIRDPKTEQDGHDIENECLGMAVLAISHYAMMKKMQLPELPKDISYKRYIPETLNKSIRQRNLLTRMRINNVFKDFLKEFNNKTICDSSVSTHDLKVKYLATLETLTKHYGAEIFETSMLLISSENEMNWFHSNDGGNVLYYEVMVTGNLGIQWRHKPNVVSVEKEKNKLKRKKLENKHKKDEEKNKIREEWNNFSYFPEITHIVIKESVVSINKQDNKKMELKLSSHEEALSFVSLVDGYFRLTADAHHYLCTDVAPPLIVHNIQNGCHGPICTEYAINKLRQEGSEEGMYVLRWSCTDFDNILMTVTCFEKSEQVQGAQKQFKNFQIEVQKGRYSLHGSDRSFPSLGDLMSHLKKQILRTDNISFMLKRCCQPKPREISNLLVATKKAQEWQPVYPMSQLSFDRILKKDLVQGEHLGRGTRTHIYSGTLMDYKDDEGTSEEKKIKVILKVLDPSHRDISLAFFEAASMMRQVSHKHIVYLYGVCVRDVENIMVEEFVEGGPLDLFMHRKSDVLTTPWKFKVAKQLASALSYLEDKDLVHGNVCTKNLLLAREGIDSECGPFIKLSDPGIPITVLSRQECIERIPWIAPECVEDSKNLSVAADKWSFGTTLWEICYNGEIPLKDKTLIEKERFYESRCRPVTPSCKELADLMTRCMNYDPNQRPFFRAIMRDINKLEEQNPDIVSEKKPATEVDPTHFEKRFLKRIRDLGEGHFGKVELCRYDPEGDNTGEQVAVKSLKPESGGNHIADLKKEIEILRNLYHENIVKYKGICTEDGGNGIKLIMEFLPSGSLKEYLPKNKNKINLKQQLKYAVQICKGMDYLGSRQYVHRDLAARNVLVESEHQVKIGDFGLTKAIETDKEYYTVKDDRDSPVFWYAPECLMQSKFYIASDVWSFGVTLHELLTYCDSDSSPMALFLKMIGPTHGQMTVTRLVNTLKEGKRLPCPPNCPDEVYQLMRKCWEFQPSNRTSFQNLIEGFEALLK
Chain of JAK2 (O60674 whole entry): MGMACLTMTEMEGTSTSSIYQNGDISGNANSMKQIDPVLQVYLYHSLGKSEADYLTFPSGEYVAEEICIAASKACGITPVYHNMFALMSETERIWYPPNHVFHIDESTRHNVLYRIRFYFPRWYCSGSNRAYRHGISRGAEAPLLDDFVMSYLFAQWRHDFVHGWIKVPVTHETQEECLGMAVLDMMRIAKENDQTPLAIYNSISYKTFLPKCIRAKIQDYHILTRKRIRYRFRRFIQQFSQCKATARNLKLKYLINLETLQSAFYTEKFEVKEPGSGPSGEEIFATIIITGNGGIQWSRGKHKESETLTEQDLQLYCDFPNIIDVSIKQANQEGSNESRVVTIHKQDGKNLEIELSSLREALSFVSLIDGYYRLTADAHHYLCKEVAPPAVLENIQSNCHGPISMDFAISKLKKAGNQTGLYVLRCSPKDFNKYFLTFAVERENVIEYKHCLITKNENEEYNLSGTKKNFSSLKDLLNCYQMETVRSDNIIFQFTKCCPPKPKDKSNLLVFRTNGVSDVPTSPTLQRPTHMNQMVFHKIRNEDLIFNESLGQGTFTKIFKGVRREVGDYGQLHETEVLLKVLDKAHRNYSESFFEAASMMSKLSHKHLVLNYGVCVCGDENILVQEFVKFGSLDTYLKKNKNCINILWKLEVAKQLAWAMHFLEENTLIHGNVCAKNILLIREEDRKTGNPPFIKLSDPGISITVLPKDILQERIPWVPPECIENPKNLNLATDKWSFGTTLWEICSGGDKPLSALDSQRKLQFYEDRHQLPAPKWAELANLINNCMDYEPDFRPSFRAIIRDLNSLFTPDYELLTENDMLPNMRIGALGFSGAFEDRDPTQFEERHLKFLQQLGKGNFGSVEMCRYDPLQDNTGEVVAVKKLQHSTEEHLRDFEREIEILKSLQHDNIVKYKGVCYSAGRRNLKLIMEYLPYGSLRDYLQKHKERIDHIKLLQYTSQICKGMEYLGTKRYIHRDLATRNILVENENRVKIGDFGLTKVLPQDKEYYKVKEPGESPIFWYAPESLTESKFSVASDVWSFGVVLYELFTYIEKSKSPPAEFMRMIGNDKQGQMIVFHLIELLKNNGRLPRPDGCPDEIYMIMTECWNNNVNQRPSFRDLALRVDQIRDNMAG
Chain of JAK3 (P52333 whole entry): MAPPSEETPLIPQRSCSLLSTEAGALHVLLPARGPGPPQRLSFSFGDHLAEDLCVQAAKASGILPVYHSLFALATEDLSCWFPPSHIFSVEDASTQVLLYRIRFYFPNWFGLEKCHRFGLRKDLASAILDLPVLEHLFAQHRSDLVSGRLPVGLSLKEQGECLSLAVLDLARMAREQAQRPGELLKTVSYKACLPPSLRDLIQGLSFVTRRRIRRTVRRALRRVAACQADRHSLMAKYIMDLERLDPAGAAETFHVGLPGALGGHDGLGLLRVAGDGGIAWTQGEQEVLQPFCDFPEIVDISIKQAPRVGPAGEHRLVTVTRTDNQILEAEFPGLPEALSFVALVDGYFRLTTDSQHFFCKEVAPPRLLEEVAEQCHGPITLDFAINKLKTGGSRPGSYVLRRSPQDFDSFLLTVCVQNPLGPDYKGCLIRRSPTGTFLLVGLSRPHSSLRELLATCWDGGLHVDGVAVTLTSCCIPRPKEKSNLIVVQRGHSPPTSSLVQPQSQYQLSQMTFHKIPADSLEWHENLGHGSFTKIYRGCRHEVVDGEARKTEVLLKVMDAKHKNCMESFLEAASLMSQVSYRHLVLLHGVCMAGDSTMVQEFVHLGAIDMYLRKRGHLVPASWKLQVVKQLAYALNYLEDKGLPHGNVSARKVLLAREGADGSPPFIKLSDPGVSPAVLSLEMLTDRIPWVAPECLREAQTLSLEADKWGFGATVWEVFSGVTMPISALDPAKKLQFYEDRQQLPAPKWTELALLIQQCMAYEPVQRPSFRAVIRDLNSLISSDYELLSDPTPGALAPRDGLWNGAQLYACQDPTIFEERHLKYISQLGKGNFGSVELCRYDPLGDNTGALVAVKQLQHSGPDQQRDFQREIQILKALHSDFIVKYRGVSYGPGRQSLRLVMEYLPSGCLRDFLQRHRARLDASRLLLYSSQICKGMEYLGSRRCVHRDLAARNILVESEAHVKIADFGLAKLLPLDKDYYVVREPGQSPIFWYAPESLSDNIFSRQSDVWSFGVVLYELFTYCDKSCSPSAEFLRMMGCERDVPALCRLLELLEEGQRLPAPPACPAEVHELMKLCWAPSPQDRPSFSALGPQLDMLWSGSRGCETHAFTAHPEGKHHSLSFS
Chain of Tyk2 (P29597 whole entry): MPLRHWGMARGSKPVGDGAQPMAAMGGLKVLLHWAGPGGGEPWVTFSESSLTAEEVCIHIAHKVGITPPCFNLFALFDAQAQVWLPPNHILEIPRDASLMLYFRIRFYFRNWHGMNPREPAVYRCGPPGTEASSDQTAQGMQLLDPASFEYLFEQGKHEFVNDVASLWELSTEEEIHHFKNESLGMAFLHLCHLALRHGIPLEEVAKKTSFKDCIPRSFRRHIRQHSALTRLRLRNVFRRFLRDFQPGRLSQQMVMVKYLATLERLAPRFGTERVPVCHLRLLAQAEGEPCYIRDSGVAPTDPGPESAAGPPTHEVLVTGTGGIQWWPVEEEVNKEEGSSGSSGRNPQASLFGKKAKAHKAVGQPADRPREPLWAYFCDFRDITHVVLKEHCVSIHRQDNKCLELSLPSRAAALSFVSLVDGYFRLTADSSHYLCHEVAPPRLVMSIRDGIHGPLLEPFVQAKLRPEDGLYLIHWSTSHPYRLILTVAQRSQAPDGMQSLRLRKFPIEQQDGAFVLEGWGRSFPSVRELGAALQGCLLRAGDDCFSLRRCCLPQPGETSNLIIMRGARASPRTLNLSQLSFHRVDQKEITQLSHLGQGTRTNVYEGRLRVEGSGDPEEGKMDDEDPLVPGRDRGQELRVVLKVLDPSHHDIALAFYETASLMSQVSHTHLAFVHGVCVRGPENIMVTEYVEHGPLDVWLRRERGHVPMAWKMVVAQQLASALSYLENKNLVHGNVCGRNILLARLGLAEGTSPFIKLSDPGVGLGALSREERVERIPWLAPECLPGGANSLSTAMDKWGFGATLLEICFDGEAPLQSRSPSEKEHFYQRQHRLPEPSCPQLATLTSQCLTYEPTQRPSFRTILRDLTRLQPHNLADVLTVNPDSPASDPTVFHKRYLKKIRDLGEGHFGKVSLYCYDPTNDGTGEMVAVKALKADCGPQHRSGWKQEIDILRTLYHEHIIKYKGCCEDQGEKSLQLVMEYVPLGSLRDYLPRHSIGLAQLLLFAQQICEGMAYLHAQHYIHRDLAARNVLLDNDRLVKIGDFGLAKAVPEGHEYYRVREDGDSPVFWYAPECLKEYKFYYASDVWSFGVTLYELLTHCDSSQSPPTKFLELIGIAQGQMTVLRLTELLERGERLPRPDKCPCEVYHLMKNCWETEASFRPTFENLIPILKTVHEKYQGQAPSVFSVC

C=CC(=O)N1CC(CCn2c(=O)ccc3cnc(Nc4ccc(N5CCN(C(=O)CCSC)CC5)cc4)nc32)C1 [Example 3, 8-(2-(1-acryloylazetidin-3-yl)ethyl)-2-((4-(4-(3-(methylthio)propanoyl)piperazin-1-yl)phenyl)amino)pyrido[2,3-d]pyrimidin-7(8H)-one]
JAK 2 (pKi) (JAK2): E (E represents a pKi value of 7 or below (Ki of 100 nM or above)) | Tyk 2 (pKi) (Tyk2): E (E represents a pKi value of 7 or below (Ki of 100 nM or above)) | Caco Kp (Caco-2 cell monolayers): A (A represents a value below 5×10^−6 cm/sec) | JAK 1 (pKi) (JAK1): E (E represents a pKi value of 7 or below (Ki of 100 nM or above)) | JAK 3 (pKi) (JAK3): A (A represents a pKi value≥10 (Ki≤0.1 nM)) | JAK3 (pKi)-JAK1 (pKi) (JAK3): A (A represents a value of 3 or above) | Tall-1 (pIC50) [1]: B (B represents a pC50 value between 6.7 (included) and 7.5 (IC50 between 200 nM and 32 nM)) | Kp [2]: > 1000

C=CC(=O)N1CC(CCn2c(=O)ccc3cnc(Nc4cccc(CN5CCN(S(C)(=O)=O)CC5)c4)nc32)C1 [Example 6, 8-(2-(1-acryloylazetidin-3-yl)ethyl)-2-((3-((4-(methylsulfonyl)piperazin-1-yl)methyl)phenyl)amino)pyrido[2,3-d]pyrimidin-7(8H)-one]
JAK 2 (pKi) (JAK2): E (E represents a pKi value of 7 or below (Ki of 100 nM or above)) | Tyk 2 (pKi) (Tyk2): E (E represents a pKi value of 7 or below (Ki of 100 nM or above)) | Caco Kp (Caco-2 cell monolayers): A (A represents a value below 5×10^−6 cm/sec) | JAK 1 (pKi) (JAK1): E (E represents a pKi value of 7 or below (Ki of 100 nM or above)) | JAK 3 (pKi) (JAK3): B (B represents pKi value between 9 and 10 (Ki between 1 nM and 0.1 nM)) | JAK3 (pKi)-JAK1 (pKi) (JAK3): A (A represents a value of 3 or above) | Tall-1 (pIC50) [1]: B (B represents a pC50 value between 6.7 (included) and 7.5 (IC50 between 200 nM and 32 nM)) | Kp [2]: > 100

C=CC(=O)N1CC(CCn2c(=O)ccc3cnc(Nc4ccc(N5CCN(C)CC5)nc4)nc32)C1 [Example 8, 8-(2-(1-acryloylazetidin-3-yl)ethyl)-2-((6-(4-methylpiperazin-1-yl)pyridin-3-yl)amino)pyrido[2,3-d]pyrimidin-7(8H)-one]
JAK 2 (pKi) (JAK2): E (E represents a pKi value of 7 or below (Ki of 100 nM or above)) | Tyk 2 (pKi) (Tyk2): E (E represents a pKi value of 7 or below (Ki of 100 nM or above)) | Caco Kp (Caco-2 cell monolayers): A (A represents a value below 5×10^−6 cm/sec) | JAK 1 (pKi) (JAK1): E (E represents a pKi value of 7 or below (Ki of 100 nM or above)) | JAK 3 (pKi) (JAK3): B (B represents pKi value between 9 and 10 (Ki between 1 nM and 0.1 nM)) | JAK3 (pKi)-JAK1 (pKi) (JAK3): A (A represents a value of 3 or above) | Tall-1 (pIC50) [1]: B (B represents a pC50 value between 6.7 (included) and 7.5 (IC50 between 200 nM and 32 nM)) | Kp [2]: > 100

C=CC(=O)N1CC(CCn2c(=O)ccc3cnc(Nc4cnn(C)c4)nc32)C1 [Example 15]
JAK 2 (pKi) (JAK2): E (E represents a pKi value of 7 or below (Ki of 100 nM or above)) | Tyk 2 (pKi) (Tyk2): E (E represents a pKi value of 7 or below (Ki of 100 nM or above)) | Caco Kp (Caco-2 cell monolayers): B (B represents a value between 5×10^−6 and 10×10^−6 cm/sec) | JAK 1 (pKi) (JAK1): E (E represents a pKi value of 7 or below (Ki of 100 nM or above)) | JAK 3 (pKi) (JAK3): B (B represents pKi value between 9 and 10 (Ki between 1 nM and 0.1 nM)) | JAK3 (pKi)-JAK1 (pKi) (JAK3): A (A represents a value of 3 or above) | Tall-1 (pIC50) [1]: B (B represents a pC50 value between 6.7 (included) and 7.5 (IC50 between 200 nM and 32 nM)) | Kp [2]: > 100

C=CC(=O)N1CC(CCn2c(=O)ccc3cnc(Nc4cnn(CCOC(C)C)c4)nc32)C1 [Example 24]
JAK 2 (pKi) (JAK2): E (E represents a pKi value of 7 or below (Ki of 100 nM or above)) | Tyk 2 (pKi) (Tyk2): E (E represents a pKi value of 7 or below (Ki of 100 nM or above)) | Caco Kp (Caco-2 cell monolayers): B (B represents a value between 5×10^−6 and 10×10^−6 cm/sec) | JAK 1 (pKi) (JAK1): E (E represents a pKi value of 7 or below (Ki of 100 nM or above)) | JAK 3 (pKi) (JAK3): B (B represents pKi value between 9 and 10 (Ki between 1 nM and 0.1 nM)) | JAK3 (pKi)-JAK1 (pKi) (JAK3): A (A represents a value of 3 or above) | Tall-1 (pIC50) [1]: B (B represents a pC50 value between 6.7 (included) and 7.5 (IC50 between 200 nM and 32 nM)) | Kp [2]: > 100

C=CC(=O)N1CC(CCn2c(=O)ccc3cnc(Nc4ccc(CN5CCOCC5)cc4)nc32)C1 [Example 44]
JAK 2 (pKi) (JAK2): E (E represents a pKi value of 7 or below (Ki of 100 nM or above)) | Tyk 2 (pKi) (Tyk2): E (E represents a pKi value of 7 or below (Ki of 100 nM or above)) | JAK 1 (pKi) (JAK1): E (E represents a pKi value of 7 or below (Ki of 100 nM or above)) | JAK 3 (pKi) (JAK3): B (B represents pKi value between 9 and 10 (Ki between 1 nM and 0.1 nM)) | JAK3 (pKi)-JAK1 (pKi) (JAK3): A (A represents a value of 3 or above) | Tall-1 (pIC50) [1]: B (B represents a pC50 value between 6.7 (included) and 7.5 (IC50 between 200 nM and 32 nM)) | Kp [2]: > 50

C=CC(=O)N1CC(C(C)Cn2c(=O)ccc3cnc(Nc4ccc(N5CCN(C(C)=O)CC5)cc4)nc32)C1 (stereo not shown) [Example 156]
JAK 2 (pKi) (JAK2): E (E represents a pKi value of 7 or below (Ki of 100 nM or above)) | Tyk 2 (pKi) (Tyk2): E (E represents a pKi value of 7 or below (Ki of 100 nM or above)) | JAK 1 (pKi) (JAK1): E (E represents a pKi value of 7 or below (Ki of 100 nM or above)) | JAK 3 (pKi) (JAK3): B (B represents pKi value between 9 and 10 (Ki between 1 nM and 0.1 nM)) | JAK3 (pKi)-JAK1 (pKi) (JAK3): A (A represents a value of 3 or above) | Tall-1 (pIC50) [1]: B (B represents a pC50 value between 6.7 (included) and 7.5 (IC50 between 200 nM and 32 nM)) | Kp [2]: > 14

C=CC(=O)N1CCN(CCn2c(=O)ccc3cnc(Nc4ccc(N5CCN(CCOC)CC5)cc4)nc32)CC1 [Example 208]
JAK 2 (pKi) (JAK2): E (E represents a pKi value of 7 or below (Ki of 100 nM or above)) | Tyk 2 (pKi) (Tyk2): E (E represents a pKi value of 7 or below (Ki of 100 nM or above)) | Caco Kp (Caco-2 cell monolayers): B (B represents a value between 5×10^−6 and 10×10^−6 cm/sec) | JAK 1 (pKi) (JAK1): E (E represents a pKi value of 7 or below (Ki of 100 nM or above)) | JAK 3 (pKi) (JAK3): B (B represents pKi value between 9 and 10 (Ki between 1 nM and 0.1 nM)) | JAK3 (pKi)-JAK1 (pKi) (JAK3): A (A represents a value of 3 or above) | Tall-1 (pIC50) [1]: B (B represents a pC50 value between 6.7 (included) and 7.5 (IC50 between 200 nM and 32 nM))

C=CC(=O)N1CCN(CCn2c(=O)ccc3cnc(Nc4cnn(CC(F)F)c4)nc32)[C@@H](CC)C1 [Example 209]
JAK 2 (pKi) (JAK2): E (E represents a pKi value of 7 or below (Ki of 100 nM or above)) | Tyk 2 (pKi) (Tyk2): E (E represents a pKi value of 7 or below (Ki of 100 nM or above)) | Caco Kp (Caco-2 cell monolayers): A (A represents a value below 5×10^−6 cm/sec) | JAK 1 (pKi) (JAK1): E (E represents a pKi value of 7 or below (Ki of 100 nM or above)) | JAK 3 (pKi) (JAK3): B (B represents pKi value between 9 and 10 (Ki between 1 nM and 0.1 nM)) | JAK3 (pKi)-JAK1 (pKi) (JAK3): A (A represents a value of 3 or above) | Tall-1 (pIC50) [1]: B (B represents a pC50 value between 6.7 (included) and 7.5 (IC50 between 200 nM and 32 nM))

C=CC(=O)N1CC(CCn2c(=O)ccc3cnc(Nc4cnn(C5CCN(C(=O)CSC)CC5)c4)nc32)C1 [Example 210]
JAK 2 (pKi) (JAK2): E (E represents a pKi value of 7 or below (Ki of 100 nM or above)) | Tyk 2 (pKi) (Tyk2): E (E represents a pKi value of 7 or below (Ki of 100 nM or above)) | Caco Kp (Caco-2 cell monolayers): A (A represents a value below 5×10^−6 cm/sec) | JAK 1 (pKi) (JAK1): E (E represents a pKi value of 7 or below (Ki of 100 nM or above)) | JAK 3 (pKi) (JAK3): A (A represents a pKi value≥10 (Ki≤0.1 nM)) | JAK3 (pKi)-JAK1 (pKi) (JAK3): A (A represents a value of 3 or above) | Tall-1 (pIC50) [1]: B (B represents a pC50 value between 6.7 (included) and 7.5 (IC50 between 200 nM and 32 nM))

C=CC(=O)N1C[C@H](Nc2ncnc3[nH]ccc23)CC[C@@H]1C [PF-06651600, 2-propen-1-one, 1-[(2S,5R)-2-methyl-5-(7-pyrrolo[2,3-d]pyrimidin-4-ylamino)-1-piperidinyl], reference compound]
colon to plasma ratio [2]: 2.8
